Legend:
[1] = test system: rat Chronic Constriction Injury model (Bennett Model); assay: Hargreaves test (thermal paw withdrawal latency, thermal hyperalgesia) in rat Chronic Constriction Injury model; assay type: in vivo, Wistar rats
Description: The inventors evaluated the efficacy of a various beta-2-adrenergic receptor agonists and compared them to clonidine (an alpha-2-agonist) and saline in the rat Chronic Constriction Injury model (i.e., Bennett Model) using Wistar rats. The purpose: To determine whether the beta-2-adrenergic receptor agonists can improve pain associated behavioral responses in a rat model of neuropathic pain.
The doses given would mimic those achievable by a continuous release drug depot containing a biodegradable polymer (7 rats in each group).

[2] = test system: rat Chronic Constriction Injury model (Bennett Model); assay: von Frey test (mechanical threshold, mechanical allodynia) in rat Chronic Constriction Injury model; assay type: in vivo, Wistar rats
Method: The inventors evaluated the efficacy of a various beta-2-adrenergic receptor agonists and compared them to clonidine (an alpha-2-agonist) and saline in the rat Chronic Constriction Injury model (i.e., Bennett Model) using Wistar rats.
Hargreaves tests were conducted on days 7 and 14; […], where some drug compositions having predominantly beta-2 agonist activity were compared to clonidine a drug composition that has predominantly alpha-2 agonist activity and saline. The doses given would mimic those achievable by a continuous release drug depot containing a biodegradable polymer (7 rats in each group). […]
FIG. 4 is a graphic representation of the mechanical threshold as a percentage from baseline in rats given clonidine 0.02 mg/kg, ritodrine 5 mg/kg, ritodrine 2 mg/kg, salbutamol 10 mg/kg, salbutamol 5 mg/kg, terbutaline 0.5 mg/kg, terbutaline 0.1 mg/kg, and saline subcutaneously every day for 15 days. […]

[3] = 5 mg/kg subcutaneous every day for 15 days, day 14

Clc1cccc(Cl)c1N=C1NCCN1 [clonidine, 2,6-dichloro-N-2-imidazolidinyldenebenzenamine]
pain behavioral response for thermal hyperalgesia (thermal paw withdrawal latency, percentage of baseline) compared with saline group ([1]; 0.02 mg/kg subcutaneous every day for 15 days, day 14): statistically significant result of decreasing pain responses

CC(NCCc1ccc(O)cc1)C(O)c1ccc(O)cc1 (centres unmarked) [ritodrine]
pain behavioral response for thermal hyperalgesia (thermal paw withdrawal latency, percentage of baseline) compared with saline group ([1]; 2 mg/kg subcutaneous every day for 15 days, day 7): statistically significant result of decreasing pain responses | pain behavioral response for thermal hyperalgesia (thermal paw withdrawal latency, percentage of baseline) compared with saline group [1, 3]: statistically significant result of decreasing pain responses | pain behavioral response for mechanical allodynia (mechanical threshold, percentage of baseline) compared with saline group [2, 3]: statistically significant result of decreasing pain responses

CC(C)(C)NCC(O)c1ccc(O)c(CO)c1 (centres unmarked) [salbutamol]
pain behavioral response for thermal hyperalgesia (thermal paw withdrawal latency, percentage of baseline) compared with saline group ([1]; 5 mg/kg subcutaneous every day for 15 days, days 7 and 14): statistically significant result of decreasing pain responses | pain behavioral response for thermal hyperalgesia (thermal paw withdrawal latency, percentage of baseline) compared with saline group ([1]; 10 mg/kg subcutaneous every day for 15 days, days 7 and 14): statistically significant result of decreasing pain responses | pain behavioral response for mechanical allodynia (mechanical threshold, percentage of baseline) compared with saline group [2, 3]: statistically significant result of decreasing pain responses | pain behavioral response for mechanical allodynia (mechanical threshold, percentage of baseline) compared with saline group ([2]; 10 mg/kg subcutaneous every day for 15 days, days 8 and 15): statistically significant result of decreasing pain responses

CC(C)(C)NCC(O)c1cc(O)cc(O)c1 (centres unmarked) [terbutaline]
pain behavioral response for thermal hyperalgesia (thermal paw withdrawal latency, percentage of baseline) compared with saline group ([1]; 0.1 mg/kg subcutaneous every day for 15 days, days 7 and 14): statistically significant result of decreasing pain responses | pain behavioral response for thermal hyperalgesia (thermal paw withdrawal latency, percentage of baseline) compared with saline group ([1]; 0.5 mg/kg subcutaneous every day for 15 days, days 7 and 14): statistically significant result of decreasing pain responses | pain behavioral response for mechanical allodynia (mechanical threshold, percentage of baseline) compared with saline group ([2]; 0.5 mg/kg subcutaneous every day for 15 days, day 14): statistically significant result of decreasing pain responses
